In ChEMBL document CHEMBL3046634, “Synthesis of some 1,3,4-thiadiazole derivatives as inhibitors of Entamoeba histolytica” (Med Chem Res, 2013) one finds IC50 data, which are given here for two molecules.

One assay concerns Entamoeba histolytica. Kind of assay: Antiamoebic activity against trophozoites of Entamoeba histolytica HM-1:IMSS after 72 hr by eosin stain-based spectrophotometric analysis. Type of assay: functional, organism-based.
A further assay deals with MCF7. Kind of assay: Cytotoxicity against Homo sapiens (human) MCF7 cells after 48 hr by MTT assay. Type of assay: cell-based. To be noted: MCF7, 48 h.

Structures are written as SMILES.

As a reminder, the IC50 is the concentration at which inhibition is half-maximal. High values mean weaker potency, low ones greater potency. Regarding `Nc1nnc(-c2ccccc2)s1`, the IC50 in the assay on Entamoeba histolytica was 5.46 µM.

In the assay on MCF7, `Cc1ncc([N+](=O)[O-])n1CCO` [METRONIDAZOLE] registered a half-inhibitory concentration (IC50) above 250 µM.
